The record followed here is publication PMC11844072, “Novel 5,6-dichlorobenzimidazole derivatives as dual BRAFWT and BRAFV600E inhibitors: design, synthesis, anti-cancer activity and molecular dynamics simulations” (BMC Chemistry, 2025).

Assay [1] deals with T1, BRAFWT (Homo sapiens, UniProt P15056).
T1 construct: purchased BPS Biosciences 78316
In words: BRAFWT kinase assay kit (Kinase-Glo Max luminescence). In kind it is biochemical. The following applies: mean of two independent experiments ± SD; for inhibition at 10 µM: BRAFwt. As for the experimental part: The inhibitory activities of 10a–p on BRAFWT was examined utilizing BRAFWT assay kit (BPS Biosciences—San Diego—CA—US) (For further information see Additional file A).
4. Biochemical kinase assays
The inhibitory activity against different kinases was determined using kinase kits (BRAF WT […]
Glo Max luminescence kinase assay kit (Promega).
The assay was carried out according to the protocol provided by the manufacturer. A stock solution of the synthesized derivatives in 100% DMSO was prepared. Subsequently, the compounds were diluted to 10% DMSO.
A master mixture was prepared according to the number of wells. For BRAF assay each well include 6 μl of 5x Kinase Buffer 1 + 1 μl of ATP (500 μM) + 10 μl of 5X Raf substrate + 8 μl of distilled water. 1x Kinase buffer 1 was prepared by mixing 600 μl of 5x Kinase Buffer 1 with 2400 μl water to give 3 mL. Kinases were thawed on ice and were diluted with 1x Kinase Buffer 1.
To start the biochemical reaction, 25 µL of the master mixture was added to each well in 96 well plate. 5 µL of 10% DMSO was added to positive control wells and blank wells. 5 µL of diluted inhibitor was added to each well labelled with the test inhibitor so that the final concentration of DMSO is 1% in all reactions. Then 20 µL of (2.5 ng/μl) in case of BRAF WT and (1 ng / μl) in case of VEGFR-2 and FGFR-1 in 1x kinase buffer was added to positive control wells and wells labelled with the inhibitor, while 20 µL 1x kinase buffer 1 was added to the blank wells.
The plate was incubated at 30 °C for 45 min. Subsequently, 50 μl of Kinase-Glo Max luminescence reagent was added to each well and the plate was covered with aluminum foil and incubated at room temperature for 15 min. Finally, the luminescence was recorded using multimode microplate reader. Kinase activity assays were performed in duplicate at each concentration.
The luminescence data were analyzed as follows. The difference between luminescence intensities in the absence of kinase (Lu t) and in the presence of kinase (Lu c) was defined as 100 % […]
calculated as: % activity = {(Lu t - Lu)/(Lut - Luc)} ×100%. The concentration of the test compounds required to reduce the kinase activity by 50% was determined from dose-response curves and […]
For orientation: Kinase-Glo measures the ATP left after a reaction by luminescence.

Assay [2] has as its system 786-0. As to the kind of experiment: NCI 60 single concentration growth inhibition. In kind it is cell-based, human. The following applies: Homo sapiens, 786-0, Renal cancer, read-out: GI%. As for the experimental part: (§1) The synthesized dichlorobenzimidazoles 10a–p were assayed for their influence on divers cancer cell lines according to the method presented in the Additional file A.
(§2) 5. Screening of cytotoxic activity against a panel of sixty human tumor cell lines
(§3) The selected compounds by NCI were evaluated for their anticancer activity in a two-stage process. First, these compounds were screened against the full NCI 60 cell lines panel at a single high dose of 10 µM. Then, the output from the single dose screen is reported as a mean graph. […]
(§4) at five different minimal concentrations.
(§5) Assay protocol. The human tumor cell lines of the cancer screening panel are grown in RPMI 1640 medium containing 5% fetal bovine serum and 2 mM L-glutamine. For a typical screening experiment, cells are inoculated into 96 well microtiter plates in 100 µL at plating densities ranging from 5000 to 40,000 cells/well depending on the doubling time of individual cell lines. After cell inoculation, the microtiter plates are incubated at 37 °C, 5% CO 2, 95% air and 100% relative humidity for 24 h prior to addition of the experimental drugs.
(§6) After 24 h, two plates of each cell line are fixed in situ with TCA, to represent a measurement of the cell population for each cell line at the time of drug addition (Tz). The experimental drugs are solubilized in dimethyl sulfoxide at 400-fold the desired final maximum test concentration and stored frozen prior to use. At the time of drug addition, an aliquot of frozen concentrate is thawed and diluted to twice the desired final maximum test concentration with complete medium containing 50 µg/mL gentamicin. Additional four, 10-fold or ½ log serial dilutions are made to provide a total of five drug concentrations plus control.
(§7) Aliquots of […] of these different drug dilutions are added to the appropriate microtiter wells already containing […] of medium, resulting in the required final drug concentrations.
(§8) Following drug addition, the plates are incubated for an additional 48 h at 37 °C, 5% CO 2, 95% air, and 100% relative humidity. For adherent cells, the assay is terminated by the addition of cold TCA.
(§9) Cells are fixed in situ by the gentle addition of 50 µL of cold 50% (w/v) TCA (final concentration, 10% TCA) and incubated for 60 min at 4 °C. The supernatant is discarded, and the plates are washed five times with tap water and air dried. Sulforhodamine B (SRB) solution ([…]) at 0.4% (w/v) in 1% acetic acid is added to each well, and plates are incubated for 10 min at room temperature. After staining, unbound dye is removed by washing five times with 1% acetic acid and the plates are air dried. Bound stain is subsequently solubilized with 10 mM trizma base, and the absorbance is read on an automated plate reader at a wavelength of 515 nm. For suspension cells, the methodology is […]
(§10) the same except that the assay is terminated by fixing settled cells at the bottom of the wells by gently adding 50 µl of 80% TCA (final concentration, 16% TCA). Using the seven absorbance measurements [time zero, (Tz), control growth, (C), and test growth in the presence of drug at the five concentration levels (Ti)], the percentage growth is calculated at each of the drug concentrations […]
(§11) Percentage growth inhibition is calculated as: [(Ti Tz)/(C–Tz)] x 100 for concentrations for which Ti>/=Tz and [(Ti-Tz)/Tz] x 100 for concentrations for which Ti < Tz.
(§12) Three dose response parameters are calculated for each experimental agent. Growth […]
(§13) concentration resulting in a 50% reduction in the net protein increase (as measured by SRB staining) in control cells during the drug incubation. The drug concentration resulting in total growth inhibition (TGI) is calculated from Ti = Tz. […]
(§14) reduction in the measured protein at the end of the drug treatment as compared to that at the beginning) indicating a net loss of cells following treatment is calculated from [(Ti–Tz)/Tz] x 100 =
(§15) _50. Values are calculated for each of these three parameters if the level of activity is reached; […]

Assay [3] concerns A498. In words: NCI 60 single concentration growth inhibition. In kind it is cell-based, human. The following applies: Homo sapiens, A498, Renal cancer, read-out: GI%. As for the experimental part:
as §1, §2, §3, §4, §5, §6, §7, §8, §9, §10, §11, §12, §13, §14, §15

The subject of assay [4] is HOP-62. As to the kind of experiment: NCI 60 single concentration growth inhibition. In kind it is cell-based, human. The following applies: Homo sapiens, HOP-62, Non-small cell lung cancer, read-out: GI%. As for the experimental part:
as §1, §2, §3, §4, §5, §6, §7, §8, §9, §10, §11, §12, §13, §14, §15

The subject of assay [5] is MDA-MB-231/ATCC. In words: NCI 60 single concentration growth inhibition. In kind it is cell-based, human. The following applies: Homo sapiens, Breast cancer, read-out: GI%. The protocol:
as §1, §2, §3, §4, §5, §6, §7, §8, §9, §10, §11, §12, §13, §14, §15

Assay [6] relates to OVCAR-8. In words: NCI 60 single concentration growth inhibition. In kind it is cell-based, human. The following applies: Homo sapiens, OVCAR-8, Ovarian cancer, read-out: GI%. As for the experimental part:
as §1, §2, §3, §4, §5, §6, §7, §8, §9, §10, §11, §12, §13, §14, §15

For assay [7], the system named is RPMI-8226. In words: NCI 60 single concentration growth inhibition. In kind it is cell-based, human. The following applies: Homo sapiens, RPMI-8226, Leukemia, read-out: GI%. As for the experimental part:
as §1, §2, §3, §4, §5, §6, §7, §8, §9, §10, §11, §12, §13, §14, §15

For assay [8], the system named is SF-539. In words: NCI 60 single concentration growth inhibition. In kind it is cell-based, human. The following applies: Homo sapiens, SF-539, CNS cancer, read-out: GI%. As for the experimental part: as §1, §2, §3, §4, §5, §6, §7, §8, §9, §10, §11, §12, §13, §14, §15

T1 sequence (P15056 whole entry): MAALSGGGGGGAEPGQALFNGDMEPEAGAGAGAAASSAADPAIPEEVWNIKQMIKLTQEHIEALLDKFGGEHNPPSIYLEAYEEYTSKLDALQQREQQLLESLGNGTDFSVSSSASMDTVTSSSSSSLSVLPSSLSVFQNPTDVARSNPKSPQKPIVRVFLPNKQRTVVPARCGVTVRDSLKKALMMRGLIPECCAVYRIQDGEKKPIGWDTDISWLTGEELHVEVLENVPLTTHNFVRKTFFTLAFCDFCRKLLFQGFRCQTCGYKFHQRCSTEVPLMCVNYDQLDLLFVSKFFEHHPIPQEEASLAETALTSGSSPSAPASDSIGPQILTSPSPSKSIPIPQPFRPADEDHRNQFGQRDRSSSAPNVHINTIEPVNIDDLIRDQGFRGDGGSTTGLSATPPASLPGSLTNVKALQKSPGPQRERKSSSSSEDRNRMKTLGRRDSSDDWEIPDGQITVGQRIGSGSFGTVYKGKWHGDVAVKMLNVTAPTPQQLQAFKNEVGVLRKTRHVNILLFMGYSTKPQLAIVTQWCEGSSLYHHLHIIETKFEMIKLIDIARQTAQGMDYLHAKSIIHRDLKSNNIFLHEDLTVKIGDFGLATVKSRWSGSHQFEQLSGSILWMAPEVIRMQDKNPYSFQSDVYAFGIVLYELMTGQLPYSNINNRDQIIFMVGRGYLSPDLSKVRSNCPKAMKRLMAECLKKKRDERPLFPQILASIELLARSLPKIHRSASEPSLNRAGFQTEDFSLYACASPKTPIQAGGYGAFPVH

As for `COc1ccc(-c2nc3cc(Cl)c(Cl)cc3n2CC(=O)NN=Cc2ccc(OCC(=O)O)cc2)cc1` [Compound 10f, 2-(4-((2-(2-(5,6-Dichloro-2-(4-methoxyphenyl)-1H-benzo[d]imidazol-1-yl)acetyl)hydrazono)methyl)phenoxy)acetic acid], the inhibition at 10 µM in assay [1] was 53.15 ± 0.36%; in assay [2], under 5%; in assay [3], under 5%; in assay [4] it was under 5%; in assay [5], under 5%; in assay [6], under 5%. The inhibition at 10 µM in assay [7] was under 5%; in assay [8], 10.8%.
With `COC(=O)COc1cccc(C=NNC(=O)Cn2c(-c3ccc(OC)cc3)nc3cc(Cl)c(Cl)cc32)c1` [Compound 10g, Methyl-2-(3-((2-(2-(5,6-dichloro-2-(4-methoxyphenyl)-1H-benzo[d]imidazol-1-yl)acetyl)hydrazono)methyl)phenoxy)acetate], the inhibition at 10 µM is 39.9 ± 2.49% in assay [1]; 10% in assay [2]; under 5% in assay [3]; under 5% in assay [4]; 21.6% in assay [5]; 84.2% in assay [6]. For the same molecule, the inhibition at 10 µM in assay [7] is under 5%; in assay [8], 26.5%.
Regarding `COC(=O)COc1ccc(C=NNC(=O)Cn2c(-c3ccc(OC)cc3)nc3cc(Cl)c(Cl)cc32)cc1` [Compound 10h, Methyl-2-(4-((2-(2-(5,6-dichloro-2-(4-methoxyphenyl)-1H-benzo[d]imidazol-1-yl)acetyl)hydrazono)methyl)phenoxy)acetate], the inhibition at 10 µM in assay [1] is 91.2 ± 6.5%; in assay [2], 112%; in assay [3], under 5%; in assay [4], under 5%; in assay [5] it was 94.5%; in assay [6], 148%. The inhibition at 10 µM was under 5% in assay [7] and 39.2% in assay [8]. In assay [1], this molecule had an IC50 of 1.72 ± 0.09 µM.
For the molecule `CCOC(=O)C(C)Oc1ccc(C=NNC(=O)Cn2c(-c3ccc(OC)cc3)nc3cc(Cl)c(Cl)cc32)cc1` (centres unmarked) [Compound 10j, Ethyl-2-(4-((2-(2-(5,6-dichloro-2-(4-methoxyphenyl)-1H-benzo[d]imidazol-1-yl)acetyl) hydrazono)methyl)phenoxy)propanoate], the inhibition at 10 µM is 70.2 ± 6.16% in assay [1]; 11.3% in assay [2]; under 5% in assay [3]; under 5% in assay [4]; 17.2% in assay [5]; 20.7% in assay [6]. For the same molecule, the inhibition at 10 µM in assay [7] was 40.2%; in assay [8] it was under 5%.
On to `COc1ccc(-c2nc3cc(Cl)c(Cl)cc3n2CC(=O)NN=Cc2ccc(OC)c(O)c2)cc1` [Compound 10k, 2-(5,6-Dichloro-2-(4-methoxyphenyl)-1H-benzo[d]imidazol-1-yl)-N'-(3-hydroxy-4-methoxybenzylidene)acetohydrazide], for which the inhibition at 10 µM was 47.6 ± 3.8% in assay [1]; 25.3% in assay [2]; 29.7% in assay [3]; under 5% in assay [4]; 33.9% in assay [5]; 29.3% in assay [6]. Moreover, the inhibition at 10 µM worked out at 38.8% in assay [7] and 29.1% in assay [8].
Regarding `COc1ccc(-c2nc3cc(Cl)c(Cl)cc3n2CC(=O)NN=Cc2ccc(O)c(OC)c2)cc1` [Compound 10l, 2-(5,6-Dichloro-2-(4-methoxyphenyl)-1H-benzo[d]imidazol-1-yl)-N'-(4-hydroxy-3-methoxybenzylidene)acetohydrazide], the inhibition at 10 µM in assay [1] stood at 52.3 ± 4.92%; in assay [2], 30.7%; in assay [3] it was 16.2%; in assay [4], 12.4%; in assay [5], 17.2%; in assay [6] it was 27.1%. For the same molecule, the inhibition at 10 µM in assay [7] worked out at 48.3%; in assay [8], 32.4%.
Take `COC(=O)COc1cc(C=NNC(=O)Cn2c(-c3ccc(OC)cc3)nc3cc(Cl)c(Cl)cc32)ccc1OC` [Compound 10o, Methyl-2-(5-((2-(2-(5,6-dichloro-2-(4-methoxyphenyl)-1H-benzo[d]imidazol-1-yl)acetyl)hydrazono)methyl)-2-methoxyphenoxy)acetate]: the inhibition at 10 µM in assay [1] is 34.3 ± 3.31%; in assay [2], 11.9%; in assay [3], under 5%; in assay [4] it was under 5%; in assay [5] it was 90.1%; in assay [6], 69.8%. The inhibition at 10 µM in assay [7] was determined as 17.9%; in assay [8] it was 80%.
For the molecule `COC(=O)COc1ccc(C=NNC(=O)Cn2c(-c3ccc(OC)cc3)nc3cc(Cl)c(Cl)cc32)cc1OC` [Compound 10p, Methyl-2-(4-((2-(2-(5,6-dichloro-2-(4-methoxyphenyl)-1H-benzo[d]imidazol-1-yl)acetyl)hydrazono)methyl)-2-methoxyphenoxy)acetate], the inhibition at 10 µM in assay [1] is 90.5 ± 8.9%; in assay [2], 162%; in assay [3], under 5%; in assay [4] it was under 5%; in assay [5] it was 64.6%; in assay [6] it was 143%. Besides, the inhibition at 10 µM in assay [7] was 15.7%; in assay [8], 101%.

The term IC50 denotes the midpoint of a concentration-inhibition curve. A higher IC50 goes with weaker potency in that assay.
